The IC50 is the concentration that gives 50% inhibition.

This test has as its target T1, full-length beta-Catenin (Uniprot ID P35222) (Homo sapiens, UniProt P35222).
T1 construct: 10 nM full-length beta-Catenin (Uniprot ID P35222)
T1 sequence (P35222 1-781): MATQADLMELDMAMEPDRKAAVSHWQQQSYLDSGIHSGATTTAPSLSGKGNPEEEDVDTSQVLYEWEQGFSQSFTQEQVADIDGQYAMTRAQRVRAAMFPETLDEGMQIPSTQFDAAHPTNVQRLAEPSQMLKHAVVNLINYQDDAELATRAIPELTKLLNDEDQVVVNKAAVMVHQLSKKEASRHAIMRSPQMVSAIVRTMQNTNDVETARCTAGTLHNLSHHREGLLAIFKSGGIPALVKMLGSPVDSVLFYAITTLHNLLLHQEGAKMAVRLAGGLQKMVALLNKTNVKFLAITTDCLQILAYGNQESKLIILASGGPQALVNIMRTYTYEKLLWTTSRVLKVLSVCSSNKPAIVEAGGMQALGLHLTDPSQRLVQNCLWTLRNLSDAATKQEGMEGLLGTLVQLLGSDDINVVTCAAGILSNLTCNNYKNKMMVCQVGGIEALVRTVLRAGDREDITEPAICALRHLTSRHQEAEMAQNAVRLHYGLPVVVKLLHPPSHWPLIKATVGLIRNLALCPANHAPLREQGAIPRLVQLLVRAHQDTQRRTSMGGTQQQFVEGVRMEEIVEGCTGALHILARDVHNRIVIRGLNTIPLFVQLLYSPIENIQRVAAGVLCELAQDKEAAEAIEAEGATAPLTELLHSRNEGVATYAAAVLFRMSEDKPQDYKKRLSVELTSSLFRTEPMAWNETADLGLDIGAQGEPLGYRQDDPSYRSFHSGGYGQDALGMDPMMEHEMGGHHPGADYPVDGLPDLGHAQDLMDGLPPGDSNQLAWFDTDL
The test can be described thus: Fluorescence polarization IC50 (beta-catenin / 5FAM-TCF4 10-53 competition). The format is binding. Particulars: fluorescence polarization; read-out: beta-Catenin FP IC50. In general terms: In fluorescence polarisation assays a small probe gives low polarisation when free and higher when bound to something large.
Turning to `CC(=O)N1CCC[C@]12CC=CCCCC1(CCCC=CCCCOC(=O)N3CC[C@@](C(=O)N[C@@H](Cc4ccccc4)C(=O)N[C@@H](Cc4csc5ccccc45)C(=O)N[C@@H](CCC(N)=O)C(N)=O)(C3)NC(=O)[C@H](CC(N)=O)NC(=O)[C@H](Cc3ccccc3)NC(=O)[C@H](C)NC(=O)[C@H](C)NC(=O)[C@H]([C@@H](C)O)NC(=O)[C@H](CC(N)=O)NC1=O)NC(=O)[C@H](CC(C)(C)C)NC(=O)[C@H](CC(=O)O)NC2=O` (stereo partly drawn) [I-1735, Ac-PL3-Asp-Npg-B5-Asn-Thr-Ala-Ala-Phe-Asn-PyrS2-Phe-BztA-Gln-NH2], the IC50 came to 667 nM.
As to `CC(=O)N1CCC[C@]12CC=CCCCC1(CCCC=CCCCOC(=O)N3CC[C@@](C(=O)N[C@@H](Cc4cccs4)C(=O)N[C@@H](Cc4csc5ccccc45)C(=O)N[C@@H](CCC(N)=O)C(N)=O)(C3)NC(=O)[C@H](CC(N)=O)NC(=O)[C@H](Cc3ccccc3)NC(=O)[C@H](C)NC(=O)[C@H](C)NC(=O)[C@H]([C@@H](C)O)NC(=O)[C@H](CC(N)=O)NC1=O)NC(=O)[C@H](CC(C)(C)C)NC(=O)[C@H](CC(=O)O)NC2=O` (stereo partly drawn) [I-1736, Ac-PL3-Asp-Npg-B5-Asn-Thr-Ala-Ala-Phe-Asn-PyrS2-2Thi-BztA-Gln-NH2], the 50% inhibitory concentration (IC50) worked out at 458 nM.
The value for `CC(=O)N1CCC[C@]12CC=CCCCC1(CCCC=CCCCOC(=O)N3CC[C@@](C(=O)N[C@@H](Cc4ccccc4C)C(=O)N[C@@H](Cc4csc5ccccc45)C(=O)N[C@@H](CCC(N)=O)C(N)=O)(C3)NC(=O)[C@H](CC(N)=O)NC(=O)[C@H](Cc3ccccc3)NC(=O)[C@H](C)NC(=O)[C@H](C)NC(=O)[C@H]([C@@H](C)O)NC(=O)[C@H](CC(N)=O)NC1=O)NC(=O)[C@H](CC(C)(C)C)NC(=O)[C@H](CC(=O)O)NC2=O` (stereo partly drawn) [I-1737, Ac-PL3-Asp-Npg-B5-Asn-Thr-Ala-Ala-Phe-Asn-PyrS2-2MeF-BztA-Gln-NH2] was 518 nM; that for `CC(=O)N1CCC[C@]12CC=CCCCC1(CCCC=CCCCOC(=O)N3CC[C@@](C(=O)N[C@@H](Cc4ccccc4C(F)(F)F)C(=O)N[C@@H](Cc4csc5ccccc45)C(=O)N[C@@H](CCC(N)=O)C(N)=O)(C3)NC(=O)[C@H](CC(N)=O)NC(=O)[C@H](Cc3ccccc3)NC(=O)[C@H](C)NC(=O)[C@H](C)NC(=O)[C@H]([C@@H](C)O)NC(=O)[C@H](CC(N)=O)NC1=O)NC(=O)[C@H](CC(C)(C)C)NC(=O)[C@H](CC(=O)O)NC2=O` (stereo partly drawn) [I-1738, Ac-PL3-Asp-Npg-B5-Asn-Thr-Ala-Ala-Phe-Asn-PyrS2-2F3MeF-BztA-Gln-NH2] was 1060 nM; that for `CC(=O)N1CCC[C@]12CC=CCCCC1(CCCC=CCCCOC(=O)N3CC[C@@](C(=O)N[C@@H](Cc4cccc(C)c4)C(=O)N[C@@H](Cc4csc5ccccc45)C(=O)N[C@@H](CCC(N)=O)C(N)=O)(C3)NC(=O)[C@H](CC(N)=O)NC(=O)[C@H](Cc3ccccc3)NC(=O)[C@H](C)NC(=O)[C@H](C)NC(=O)[C@H]([C@@H](C)O)NC(=O)[C@H](CC(N)=O)NC1=O)NC(=O)[C@H](CC(C)(C)C)NC(=O)[C@H](CC(=O)O)NC2=O` (stereo partly drawn) [I-1739, Ac-PL3-Asp-Npg-B5-Asn-Thr-Ala-Ala-Phe-Asn-PyrS2-3MeF-BztA-Gln-NH2] was 3650 nM.
As to `CC(=O)N1CCC[C@]12CC=CCCCC1(CCCC=CCCCOC(=O)N3CC[C@@](C(=O)N[C@@H](Cc4ccsc4)C(=O)N[C@@H](Cc4csc5ccccc45)C(=O)N[C@@H](CCC(N)=O)C(N)=O)(C3)NC(=O)[C@H](Cc3c[nH]c4ccccc34)NC(=O)[C@H](Cc3ccccc3)NC(=O)[C@H](C)NC(=O)[C@H](C)NC(=O)[C@H]([C@@H](C)O)NC(=O)[C@H](CC(N)=O)NC1=O)NC(=O)[C@H](CC(C)(C)C)NC(=O)[C@H](CC(=O)O)NC2=O` (stereo partly drawn) [I-1741, Ac-PL3-Asp-Npg-B5-Asn-Thr-Ala-Ala-Phe-Trp-PyrS2-3Thi-BztA-Gln-NH2], the IC50 was determined as 4390 nM.
For the molecule `CC(=O)N1CCC[C@]12CC=CCCCC1(CCCC=CCCCOC(=O)N3CC[C@@](C(=O)N[C@@H](Cc4ccsc4)C(=O)N[C@@H](Cc4csc5ccccc45)C(N)=O)(C3)NC(=O)[C@H](CC(N)=O)NC(=O)[C@H](Cc3ccccc3)NC(=O)[C@H](C)NC(=O)[C@H](C)NC(=O)[C@H]([C@@H](C)O)NC(=O)[C@H](CC(N)=O)NC1=O)NC(=O)[C@H](CC(C)(C)C)NC(=O)[C@H](CC(=O)O)NC2=O` (stereo partly drawn) [I-1742, Ac-PL3-Asp-Npg-B5-Asn-Thr-Ala-Ala-Phe-Asn-PyrS2-3Thi-BztA-NH2], the IC50 is 867 nM.
The value for `CC(=O)N1CCC[C@]12CC=CCCCC1(CCCC=CCCCOC(=O)N3CC[C@@](C(=O)N[C@@H](Cc4ccsc4)C(=O)N[C@@H](Cc4csc5ccccc45)C(=O)N[C@@H](CCCNC(=N)N)C(N)=O)(C3)NC(=O)[C@H](CC(N)=O)NC(=O)[C@H](Cc3ccccc3)NC(=O)[C@H](C)NC(=O)[C@H](C)NC(=O)[C@H]([C@@H](C)O)NC(=O)[C@H](CC(N)=O)NC1=O)NC(=O)[C@H](CC(C)(C)C)NC(=O)[C@H](CC(=O)O)NC2=O` (stereo partly drawn) [I-1743, Ac-PL3-Asp-Npg-B5-Asn-Thr-Ala-Ala-Phe-Asn-PyrS2-3Thi-BztA-Arg-NH2] was 469 nM; that for `CC(=O)N1CCC[C@]12CC=CCCCC1(CCCC=CCCCOC(=O)N3CC[C@@](C(=O)N[C@@H](Cc4ccsc4)C(=O)N[C@@H](Cc4csc5ccccc45)C(=O)N[C@@H](Cc4ccccc4)C(N)=O)(C3)NC(=O)[C@H](CC(N)=O)NC(=O)[C@H](Cc3ccccc3)NC(=O)[C@H](C)NC(=O)[C@H](C)NC(=O)[C@H]([C@@H](C)O)NC(=O)[C@H](CC(N)=O)NC1=O)NC(=O)[C@H](CC(C)(C)C)NC(=O)[C@H](CC(=O)O)NC2=O` (stereo partly drawn) [I-1744, Ac-PL3-Asp-Npg-B5-Asn-Thr-Ala-Ala-Phe-Asn-PyrS2-3Thi-BztA-Phe-NH2] was 363 nM; that for `CC(=O)N1CCC[C@]12CC=CCCCC1(CCCC=CCCCOC(=O)N3CC[C@@](C(=O)N[C@@H](Cc4ccsc4)C(=O)N[C@@H](Cc4csc5ccccc45)C(=O)N[C@H](C(N)=O)[C@@H](C)O)(C3)NC(=O)[C@H](CC(N)=O)NC(=O)[C@H](Cc3ccccc3)NC(=O)[C@H](C)NC(=O)[C@H](C)NC(=O)[C@H]([C@@H](C)O)NC(=O)[C@H](CC(N)=O)NC1=O)NC(=O)[C@H](CC(C)(C)C)NC(=O)[C@H](CC(=O)O)NC2=O` (stereo partly drawn) [I-1745, Ac-PL3-Asp-Npg-B5-Asn-Thr-Ala-Ala-Phe-Asn-PyrS2-3Thi-BztA-Thr-NH2] was 402 nM.
For the molecule `CC(=O)N1CCC[C@]12CC=CCCCC1(CCCC=CCCCOC(=O)N3CC[C@@](C(=O)N[C@@H](Cc4ccsc4)C(=O)N[C@@H](Cc4csc5ccccc45)C(=O)N[C@@H](CC(N)=O)C(N)=O)(C3)NC(=O)[C@H](CC(N)=O)NC(=O)[C@H](Cc3ccccc3)NC(=O)[C@H](C)NC(=O)[C@H](C)NC(=O)[C@H]([C@@H](C)O)NC(=O)[C@H](CC(N)=O)NC1=O)NC(=O)[C@H](CC(C)(C)C)NC(=O)[C@H](CC(=O)O)NC2=O` (stereo partly drawn) [I-1746, Ac-PL3-Asp-Npg-B5-Asn-Thr-Ala-Ala-Phe-Asn-PyrS2-3Thi-BztA-Asn-NH2], the IC50 worked out at 235 nM.
Turning to `CC(=O)N1CCC[C@]12CC=CCCCC1(CCCC=CCCCOC(=O)N3CC[C@@](C(=O)N[C@@H](Cc4ccsc4)C(=O)N[C@@H](Cc4csc5ccccc45)C(=O)N[C@@H](Cc4ccccc4)C(N)=O)(C3)NC(=O)[C@H](CC(C)C)NC(=O)[C@H](Cc3ccccc3)NC(=O)[C@H](C)NC(=O)[C@H](C)NC(=O)[C@H](CN(CC(=O)O)CC(F)(F)F)NC(=O)[C@H](CC(=O)O)NC1=O)NC(=O)[C@H](CC(C)(C)C)NC(=O)[C@H](CC(=O)O)NC2=O` (stereo partly drawn) [I-1749, Ac-PL3-Asp-Npg-B5-Asp-TfeGA-Ala-Ala-Phe-Leu-PyrS2-3Thi-BztA-Phe-NH2], the IC50 came out at 145 nM.
On to `CC(=O)N1CCC[C@]12CC=CCCCC1(CCCC=CCCCOC(=O)N3CC[C@@](C(=O)N[C@@H](Cc4ccsc4)C(=O)N[C@@H](Cc4csc5ccccc45)C(=O)N[C@H](C(N)=O)C(C)C)(C3)NC(=O)[C@H](CC(C)C)NC(=O)[C@H](Cc3ccccc3)NC(=O)[C@H](C)NC(=O)[C@H](C)NC(=O)[C@H](CN(CC(=O)O)CC(F)(F)F)NC(=O)[C@H](CC(=O)O)NC1=O)NC(=O)[C@H](CC(C)(C)C)NC(=O)[C@H](CC(=O)O)NC2=O` (stereo partly drawn) [I-1751, Ac-PL3-Asp-Npg-B5-Asp-TfeGA-Ala-Ala-Phe-Leu-PyrS2-3Thi-BztA-Val-NH2], for which the IC50 was 104 nM.
In the case of `CC(=O)N1CCC[C@]12CC=CCCCC1(CCCC=CCCCOC(=O)N3CC[C@@](C(=O)N[C@@H](Cc4ccsc4)C(=O)N[C@@H](Cc4csc5ccccc45)C(=O)N[C@H](C(N)=O)C(C)C)(C3)NC(=O)[C@H](CC(C)C)NC(=O)[C@H](Cc3ccccc3)NC(=O)[C@H](C)NC(=O)[C@H](C)NC(=O)[C@H](CN(CC(=O)O)CC(F)(F)F)NC(=O)[C@H](CC(=O)O)NC1=O)NC(=O)[C@H](CC(C)(C)C)NC(=O)[C@H](CC(=O)O)NC2=O` (stereo partly drawn) [I-1752, Ac-PL3-Asp-Npg-B5-Asp-TfeGA-Ala-Ala-Phe-Leu-PyrS2-3Thi-BztA-Val-NH2], the IC50 amounted to 87 nM.
